In experiment [1] the test system is HepG2 human liver cancer cell lines. Briefly: MTT cytotoxicity assay. Particulars: HepG2, 24h exposure, versus control cell viability taken as 100%, read-out: toxicity. In kind it is cell-based. On the procedure: (§1) To assess if the produced singlet oxygen can induce cytotoxicity in tumor cells, toxicity assays were performed in vitro with compound 1 in HepG2 human liver cancer cell lines. Cytotoxicity of compound 1 was evaluated through the MTT and LDH assay, which has been widely used as a colorimetric approach based on the activity of mitochondrial dehydrogenase enzyme in cells. MTT test was performed after an incubation of 24h and 48h. LDH release was monitored following an incubation of 24h and 48h with different concentrations of Compound 1 (1, 10, 20, 50 and 100 µM). Percent viability was obtained by comparing with control cell viability, considered as 100%. Data represents the mean ± SD of measurements of three independent experiments. Results of the one-way ANOVA factorial analysis. […] Thus, compound 1 was indeed able to induce cytotoxicity without the need of external excitation sources.
(In general: Tetrazolium dyes change colour on reduction, which living cells bring about.)

Experiment [2] shares this test system. Briefly: LDH release cytotoxicity assay. In kind it is cell-based. The note with it: HepG2, 24h exposure, read-out: toxicity. The procedure:
as §1
(LDH in the medium is a marker of cell lysis.)

Experiment [3] is described as follows: Singlet oxygen formation by quenching of ABDA fluorescence. Particulars: increasing concentrations of compound (0-15 microMolar); no external excitation; sodium azide prevented the quenching. The procedure:
The production of reactive triplet states by compound 1 was determined by assessing the formation of singlet oxygen. This latter species is formed by energy transfer from a triplet molecule to oxygen. To this end, 9,10-anthracenediyl-bis(methylene)dimalonic acid (ABDA) was added to a solution containing compound 1, as the fluorescence of ABDA is quenched by the formation of singlet oxygen. […] To confirm that the quenching of ABDA's fluorescence was due to the production of singlet oxygen, sodium azide was added to solutions containing ABDA and compound 1. Sodium azide is a known quencher of singlet oxygen. As expected, the addition of sodium azide prevented the quenching of the fluorescence emitted by ABDA (Figure 12).

`Cc1nc2c(Br)[nH]c(-c3ccc(O)cc3)cn-2c1=O` [Compound 1, 8-bromo-6-(4-hydroxyphenyl)-2-methylimidazo[1,2-a]pyrazin-3(7H)-one]: the cytotoxicity at 50 µM in experiment [1] (50 µM) and in experiment [2] (50 µM) was 15% throughout. The cytotoxicity at 100 µM in experiment [1] (100 µM) and in experiment [2] (100 µM) was 12% in each case. Further, in experiment [3], the “fluorescence intensity of ABDA” value is given as “decreased significantly”.

The record behind these values is patent EP3788116B1, “CHEMILUMINESCENT IMIDAZOPYRAZINONE-BASED PHOTOSENSITIZERS WITH AVAILABLE SINGLET AND TRIPLET EXCITED STATES” (Universidade do Porto, priority 2018, dated 2019).
